# Test results taken from publication PMC12117711, “The contribution of cyclic imide stereoisomers on cereblon-dependent activity†” (Chemical Science, 2025).
# Legend:
# [1] = target: T1, His6-CRBN/DDB1 and GST-BRD4(BD2) (Homo sapiens, UniProt O60885+Q96SW2); assay: AlphaScreen ternary complex formation, His6-CRBN/DDB1 and GST-BRD4(BD2); assay type: binding
# T1 construct: His6-CRBN/DDB1 complex and GST-BRD4 BD2 domain; purchased Epicypher (GST-BRD4(BD2)); Bristol Myers Squibb gift (His6-CRBN/DDB1) 15-0013
# Protocol: AlphaScreen was performed according to the previously reported method.7 Briefly, for AlphaScreen of His6-CRBN/DDB1, GST-IKZF1 and (S)-, (R)- or rac-lenalidomide-d3, a solution of 100 nM His6-CRBN/DDB1 and 200 nM GST-IKZF1 in 1x AlphaScreen buffer (5 µL) and a solution of the indicated compound in 1x AlphaScreen buffer (5 µL) were added to a each well of a 384-well Optiplate and incubated at 24 °C for 1 h. To each well, a solution of 5 µL of 60 µg/mL AlphaScreen Glutathione Donor beads, 60 µg/mL AlphaLISA Nickel Chelate Donor beads in 1× AlphaScreen buffer was added to each well and incubated at 24 °C for 1 h in the dark and the plate was analyzed. For AlphaScreen of His6-CRBN/DDB1, GST-BRD4(BD2) and bivalent degraders, a solution of 750 nM His-CRBN/DDB1 and 375 nM GST-BRD4(BD2) in 1x AlphaScreen buffer (5 µL) and a solution of the indicated compound in 1x AlphaScreen buffer (5 µL) were added to a each well of a 384-well Optiplate and incubated at 24 °C for 1 h. To each well, a solution of 5 µL of 60 µg/mL AlphaScreen Glutathione Donor beads, 60 µg/mL AlphaLISA Nickel Chelate Donor beads in 1× AlphaScreen buffer was added to each well and incubated at 24 °C for 1 h in the dark and the plate was analyzed. […]
# heated at 95 °C for 5 min. 10 µL of the immunoprecipitated sample was load on a 12% Tris-glycine gel and probe-labeling was visualized by fluorescence signal. Separately, 10 µL of the immunoprecipitated sample and the “input” sample were load on a 12% Tris-glycine gel and analyzed by Western blotting. […]
# Parental cell lines were stably infected with a unique 24-nucleotide DNA barcode via lentiviral transduction and blasticidin selection. […] Passing barcoded lines were then pooled (20-25 cell lines per pool) based on doubling time and frozen in assay-ready vials.
# Test compounds were added to 384-well plates and run at 8 pt. dose with 3-fold dilutions, the highest concentration of 25 µM in triplicate. These assay ready plates were then seeded with […]
# [2] = target: His6-CRBN/DDB1 (Homo sapiens, UniProt Q96SW2); assay: TR-FRET ligand displacement assay (Thal-FITC tracer) with His6-CRBN/DDB1
# [3] = target: T2, thalidomide-binding domain of CRBN (CULT) (Homo sapiens, UniProt Q96SW2); assay: Photoaffinity labeling binding site mapping with i-pLen probes by LC-MS/MS; settings: equimolar mixture of i-pLen probes, photolysis after 30 min at 24 °C
# T2 construct: made in house
# T2 sequence (Q96SW2 318-426 limits assumed): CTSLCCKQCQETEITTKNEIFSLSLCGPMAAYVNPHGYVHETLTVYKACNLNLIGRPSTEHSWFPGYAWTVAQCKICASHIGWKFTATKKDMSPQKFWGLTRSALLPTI
# Protocol: (§1) (v21.1.1) and Adobe Illustrator (v24.1).
# (§2) MM.1S, MOLM13, Jurkat, and BxPC3 […]
# (§3) μg/mL), and 10% (v/v) FBS.
# (§4) Western Blotting Procedures […]
# (§5) lysates and the concentration was adjusted using lysis buffer. 5× SDS-PAGE loading buffer […]
# (§6) Protein samples (8–15 μL per lane) were […]
# (§7) precast gels for medium molecular weight proteins. Gels were transferred to membranes using […]
# (§8) for high molecular weight proteins. Membranes were stained with Ponceau S solution to visualize transfer and protein loading.
# (§9) Degradation assay by flow cytometry […]
# (§10) resuspension in DMEM +/– without phenol red. For IKZF1 degradation assay, propidium […]
# (§11) equipped with a high throughput sampler. […]
# (§12) using the BD FACSDiva software v9.1. For each experimental condition, the arithmetic mean […]
# (§13) comparing compound treatment to DMSO control.
# (§14) Structural proteomics mass spectrometry sample preparation […]
# addition of a pre-mixed cocktail (final concentrations: 100 μM cleavable biotin picolyl-azide probe, 250 μM THPTA, 250 μM CuSO4, 2.5 mM freshly dissolved sodium ascorbate) and incubated for 1.5 h at 25 °C with inversion. After excess reagent was removed by acetone precipitation, the protein pellet was resuspended in 100 mM TEAB (50 μL, pH=8.5) and 100 mM DTT/PBS (1.5 μL, final concentration 3 mM) was added before incubating for 30 min at 25 °C with inversion. […]
# The raw data were analyzed using Proteome Discoverer 2.4.1.15. […]
# [4] = tested on: MOLM13 cells; assay: Global quantitative proteomics of protein levels; assay type: cell-based; settings: 4 h; for FC [fold change abundances (R/DMSO)] / logFC (R vs DMSO) / FC [fold change abundances (rac/DMSO)] / logFC (rac vs DMSO): MOLM13, 100 nM
# Protocol: Global Quantitative Proteomics Sample Preparation and Mass Spectrometry Acquisition Global Quantitative Proteomics was performed according to the previously reported method.7 Briefly, 1.0×10^6 MOLM13 cells were seeded in 12-well plates and small molecules of interest were added, and cells were incubated at 37 °C, 5% CO2 for 4 hours. Cells were collected […]
# 15 sec in total, 11% amplitude) in lysis buffer (5% SDS in 50 mM triethylammonium bicarbonate (TEAB), pH 7.55), and cleared by centrifugation (21,000 × g, 4 °C, 10 min). After protein quantification by BCA protein assay, the lysates were diluted to 1.5 mg/mL with the lysis buffer. The diluted lysates (60 μL) were reduced by addition of dithiothreitol (20 mM) at 24 °C for 30 min then alkylated by addition of iodoacetamide (40 mM) and incubation in the dark at 24 °C for 30 min.
# [5] = target: T3, BRD4(BD1)-GFP in HEK293T cells (Homo sapiens, UniProt O60885+Q96SW2); assay: Degradation assay by flow cytometry, BRD4(BD1)-GFP; assay type: cell-based; settings: 76 pM–20 μM, 4 h
# T3 construct: HEK293T cells stably expressing BRD4(BD1) fused to GFP
# Protocol: as §1, §2, §3, §4, §5, §6, §7, §8, §9, §10, §11, §12, §13, §14
# sample throughout the assay duration. The same analysis was also applied to the (S)- […]
# dependent activity, we adjusted the dose-response curves accordingly. Because dose- […]
# within the error margins of the original curve. […]
# squares F-test. This analysis determined whether there was a statistically significant […]
# derived (S)-enantiomer. If there is a statistically significant difference, the null […]
# Cells were treated with 1 μM MLN4924
# The cells were collected and lysed in […]
# centrifugation (21,000 × g, 4 °C, 10 min). […]
# [6] = Protein CRBN, from IC50 with Correction Factor 1.43
# [7] = KD, competitive TR-FRET, His6-CRBN/DDB1
smiles,measurement,setting,value
Cc1sc2c(c1C)C(c1ccc(Cl)cc1)=N[C@@H](CC(=O)NCCCCCCCCC(=O)N[C@@H](Cc1ccccc1)C(=O)N[C@@H]1CCC(=O)NC1=O)c1nnc(C)n1-2 [JQ1-FepicQ],ternary complex formation between His6-CRBN/DDB1 and GST-BRD4(BD2),[1],minimally promoted the ternary complex
same,pIC50 (M),"[2]; Protein CRBN, Thalidomide-FITC tracer 50 nM",6.08 M
same,IC50,"[2]; Protein CRBN, Thalidomide-FITC tracer 50 nM, protein […]",840 nM
same,Kd,[2]; [6],589 nM
same,pKD (M),[2]; [6],6.23 M
C#CCCC1(CC(=O)Nc2ccc3c(c2)C[15N]([C@@H]2CCC(=O)NC2=O)C3=O)N=N1 [(R)-i-pLen],CRBN residue labeled by the probe,[3],Tyr355
C#CCCC1(CC(=O)Nc2ccc3c(c2)CN([C@H]2CCC(=O)[15NH]C2=O)C3=O)N=N1 [(S)-i-pLen],CRBN residue labeled by the probe,[3],His353
[2H]C1([2H])C[C@@]([2H])(N2Cc3cc(NC(=O)CCCCCCCCNC(=O)C[C@@H]4N=C(c5ccc(Cl)cc5)c5c(sc(C)c5C)-n5c(C)nnc54)ccc3C2=O)C(=O)NC1=O [JQ1-(R)-Len-d3],BRD4 protein levels by global quantitative proteomics,"[4]; MOLM13 cells, 100 nM",unperturbed
same,FC [fold change abundances (R/DMSO)],[4]; protein ARID1A,3.475
same,logFC (R vs DMSO),[4]; protein ARID1A,1.826
same,FC [fold change abundances (R/DMSO)],[4]; protein CAB39,0.9606
same,logFC (R vs DMSO),[4]; protein CAB39,0.2309
same,FC [fold change abundances (R/DMSO)],[4]; protein FLII,1.596
same,logFC (R vs DMSO),[4]; protein FLII,0.7992
same,FC [fold change abundances (R/DMSO)],[4]; protein FUBP3,1.064
same,logFC (R vs DMSO),[4]; protein FUBP3,0.3358
same,FC [fold change abundances (R/DMSO)],[4]; protein TPD52,1.273
same,logFC (R vs DMSO),[4]; protein TPD52,0.5322
same,Kd,[2]; [7],79 nM
same,degradation of BRD4(BD1)-GFP,[5],limited activity
[2H]C1([2H])CC([2H])(N2Cc3cc(NC(=O)CCCCCCCCNC(=O)C[C@@H]4N=C(c5ccc(Cl)cc5)c5c(sc(C)c5C)-n5c(C)nnc54)ccc3C2=O)C(=O)NC1=O (mixture of isomers) [JQ1-rac-Len-d3],ternary complex formation between His6-CRBN/DDB1 and GST-BRD4(BD2),[1],much less than JQ1-(S)-Len-d3
same,FC [fold change abundances (rac/DMSO)],[4]; protein AHCY,0.9686
same,logFC (rac vs DMSO),[4]; protein AHCY,0.2393
same,FC [fold change abundances (rac/DMSO)],[4]; protein GNB4,-1.362
same,logFC (rac vs DMSO),[4]; protein GNB4,-0.6098
same,FC [fold change abundances (rac/DMSO)],[4]; protein NUP88,-1.247
same,logFC (rac vs DMSO),[4]; protein NUP88,-0.5083
same,FC [fold change abundances (rac/DMSO)],[4]; protein SATB2,-1.143
same,logFC (rac vs DMSO),[4]; protein SATB2,-0.4122
same,FC [fold change abundances (rac/DMSO)],[4]; protein TUBB4B,1.098
same,logFC (rac vs DMSO),[4]; protein TUBB4B,0.3694
same,Kd,[2]; [7],< 2 nM
